{"source": "ChEMBL document CHEMBL1126639", "about": "“Centrally acting serotonergic and dopaminergic agents. 2. Synthesis and structure-activity relationships of 2,3,3a,4,9,9a-hexahydro-1H-benz[f]indole derivatives” (J Med Chem, 1993)", "key": {"[1]": {"target": "T1, D(2) dopamine receptor (Rattus norvegicus, UniProt P61169)", "T1 sequence (P61169 whole entry)": "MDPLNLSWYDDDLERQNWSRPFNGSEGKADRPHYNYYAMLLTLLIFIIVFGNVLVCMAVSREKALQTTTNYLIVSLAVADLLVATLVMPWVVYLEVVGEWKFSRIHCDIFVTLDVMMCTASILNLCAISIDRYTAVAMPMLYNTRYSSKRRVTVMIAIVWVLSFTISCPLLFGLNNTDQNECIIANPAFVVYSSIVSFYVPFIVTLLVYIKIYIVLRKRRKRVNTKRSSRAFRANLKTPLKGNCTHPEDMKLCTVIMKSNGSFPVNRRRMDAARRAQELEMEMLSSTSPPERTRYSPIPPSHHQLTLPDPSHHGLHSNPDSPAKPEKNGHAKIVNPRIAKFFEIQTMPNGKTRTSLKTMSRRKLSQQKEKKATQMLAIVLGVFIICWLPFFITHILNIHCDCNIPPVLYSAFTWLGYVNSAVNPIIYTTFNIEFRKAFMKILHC", "assay": "Binding affinity for [3H]raclopride-labeled dopamine receptor D2 in rat striatum", "format": "tissue-based"}, "[2]": {"target": "T1, D(2) dopamine receptor", "assay": "Inhibitory concentration against [3H]raclopride-labeled dopamine receptor D2 in rat striatum", "format": "tissue-based"}, "[3]": {"test_system": "Mus musculus", "assay": "Maximum decrease in temperature when compound is administered subcutaneously", "format": "functional"}, "[4]": {"test_system": "Mus musculus", "assay": "Time of effect in the face-to-face behavioral assay in the mouse when a dose of 0.3 micro mol/kg is administered perorally", "format": "functional"}, "[5]": {"target": "T1, D(2) dopamine receptor", "assay": "Compound was evaluated for the binding affinity against [3H]raclopride-labeled dopamine receptor D2 in rat striatum", "format": "tissue-based"}, "[6]": {"test_system": "Mus musculus", "assay": "Time of effect in the isolation-induced aggression behavioral assay in the mouse when a dose of 3.4 micro mol/kg is administered perorally", "format": "functional"}, "[7]": {"test_system": "Mus musculus", "assay": "Effective dose on hypothermia in mouse when administered subcutaneously", "format": "functional", "details": "Mus musculus, sc; read-out: ED50"}, "[8]": {"test_system": "Mus musculus", "assay": "Effective dose on hypothermia in mouse when administered through peroral route", "format": "functional", "details": "Mus musculus, po; read-out: ED50"}, "[9]": {"test_system": "Mus musculus", "assay": "Time of effect in the face-to-face behavioral assay in the mouse when a dose of 0.0 micro mol/kg is administered perorally", "format": "functional"}, "[10]": {"test_system": "Mus musculus", "assay": "Time of effect in the face-to-face behavioral assay in the mouse when a dose of 34 micro mol/kg is administered perorally", "format": "functional"}, "[11]": {"test_system": "Mus musculus", "assay": "Time of effect in the face-to-face behavioral assay in the mouse when a dose of 3.4 micro mol/kg is administered perorally", "format": "functional"}, "[12]": {"test_system": "Mus musculus", "assay": "Time of effect in the isolation-induced aggression behavioral assay in the mouse when a dose of 10 micro mol/kg is administered perorally", "format": "functional"}, "[13]": {"test_system": "Mus musculus", "assay": "Maximum decrease in temperature when compound is administered through peroral route", "format": "functional"}, "[14]": {"target": "D(2) dopamine receptor (Homo sapiens, UniProt P14416)", "sequence (P14416 whole entry)": "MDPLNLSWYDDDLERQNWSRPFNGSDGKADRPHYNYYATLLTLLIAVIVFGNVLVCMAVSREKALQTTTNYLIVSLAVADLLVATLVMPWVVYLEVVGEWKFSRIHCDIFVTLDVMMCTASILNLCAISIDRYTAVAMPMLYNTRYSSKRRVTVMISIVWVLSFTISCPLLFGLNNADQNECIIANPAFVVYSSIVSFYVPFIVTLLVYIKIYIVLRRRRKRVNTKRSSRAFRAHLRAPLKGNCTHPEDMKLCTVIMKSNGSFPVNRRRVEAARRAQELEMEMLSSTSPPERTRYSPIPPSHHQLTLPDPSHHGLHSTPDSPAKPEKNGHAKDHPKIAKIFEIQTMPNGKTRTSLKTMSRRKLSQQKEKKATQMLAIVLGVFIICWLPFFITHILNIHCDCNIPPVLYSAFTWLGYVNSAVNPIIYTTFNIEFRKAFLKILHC", "assay": "Intrinsic activity from GTP shift using CHO cell membranes expressing dopamine receptor D2", "format": "functional"}, "[15]": {"target": "Sodium-dependent dopamine transporter (Rattus norvegicus) (UniProt P23977)", "sequence (P23977 whole entry)": "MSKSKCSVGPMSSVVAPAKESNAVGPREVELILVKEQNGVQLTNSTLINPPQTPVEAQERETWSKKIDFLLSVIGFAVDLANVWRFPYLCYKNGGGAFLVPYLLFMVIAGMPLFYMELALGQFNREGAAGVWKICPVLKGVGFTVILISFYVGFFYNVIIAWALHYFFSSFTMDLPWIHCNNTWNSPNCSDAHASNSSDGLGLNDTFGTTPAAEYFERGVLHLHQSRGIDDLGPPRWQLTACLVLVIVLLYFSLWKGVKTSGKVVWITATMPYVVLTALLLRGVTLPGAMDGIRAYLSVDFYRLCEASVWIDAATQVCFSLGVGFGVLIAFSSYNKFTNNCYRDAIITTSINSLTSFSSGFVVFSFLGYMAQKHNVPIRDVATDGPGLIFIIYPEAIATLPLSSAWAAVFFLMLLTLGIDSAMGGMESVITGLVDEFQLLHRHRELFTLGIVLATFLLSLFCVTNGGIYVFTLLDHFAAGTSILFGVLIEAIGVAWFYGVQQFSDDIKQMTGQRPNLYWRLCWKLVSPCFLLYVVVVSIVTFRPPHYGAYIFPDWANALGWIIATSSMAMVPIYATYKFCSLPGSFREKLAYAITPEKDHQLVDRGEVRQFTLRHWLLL", "assay": "Inhibition of firing rates of dopaminergic neurons in the substantia nigra pars compacta by intravenous injection in rats", "format": "functional, tissue-based"}, "[16]": {"test_system": "Felis catus", "assay": "Effective dose at which the sympathetic nerve activity (SND) has been reduced to 50% of the pretreatment value in anesthetized cat; In active", "format": "functional, organism-based"}, "[17]": {"test_system": "Mus musculus", "assay": "Time of effect in the face-to-face behavioral assay in the mouse when a dose of 5.4 micro mol/kg is administered subcutaneously", "format": "functional"}, "[18]": {"test_system": "Mus musculus", "assay": "Time of effect in the face-to-face behavioral assay in the mouse when a dose of 54 micro mol/kg is administered subcutaneously", "format": "functional"}, "[19]": {"species_on_record": "Mus musculus", "assay": "Time of effect in the face-to-face behavioral assay in the mouse […]", "format": "functional"}}, "note": "“And” between values parts separate entries of the source, which are not always exact repeats. Equal entries are not always repeated. The source made the active and inactive calls. The rule behind the calls is not given here."}
{"smiles": "COc1cccc2c1C[C@H]1CCN(Cc3ccccc3)[C@@H]1C2", "note": "(racemic)", "values": [{"measurement": "Ki", "setting": "[1]", "result": "> 10000", "unit": "nM"}]}
{"smiles": "COc1cccc2c1C[C@H]1CCN[C@H]1C2", "note": "(racemic)", "values": [{"measurement": "IC50", "setting": "[2]", "result": "> 1000", "unit": "nM"}]}
{"smiles": "COc1cccc2c1C[C@H]1CCN(CC3CC3)[C@@H]1C2", "note": "(racemic)", "values": [{"measurement": "Max temperature decrease", "setting": "[3]", "result": 7}, {"measurement": "Time", "setting": "[4]", "result": 0.9, "unit": "s"}, {"measurement": "Ki", "setting": "[5]", "result": "> 1000", "unit": "nM"}, {"measurement": "Time", "setting": "[6]", "result": 58, "unit": "s"}, {"measurement": "ED50", "setting": "[7]", "result": 19, "unit": "µmol/kg"}, {"measurement": "ED50", "setting": "[8]", "result": 25, "unit": "µmol/kg"}, {"measurement": "Time", "setting": "[9]", "result": 1, "unit": "s"}, {"measurement": "Time", "setting": "[10]", "result": 1.5, "unit": "s"}, {"measurement": "Time", "setting": "[11]", "result": 1.6, "unit": "s"}, {"measurement": "Time", "setting": "[12]", "result": 177, "unit": "s"}, {"measurement": "Max temperature decrease", "setting": "[13]", "result": 6.2}]}
{"smiles": "COc1cccc2c1C[C@H]1CCN(CC3CC3)[C@H]1C2", "note": "(racemic)", "values": [{"measurement": "Ki", "setting": "[1]", "result": 748, "unit": "nM"}]}
{"smiles": "COc1cccc2c1C[C@H]1CCN(Cc3ccccc3)[C@H]1C2", "note": "(racemic)", "values": [{"measurement": "Ki", "setting": "[1]", "result": 465, "unit": "nM"}]}
{"smiles": "COc1cccc2c1C[C@H]1CCN[C@@H]1C2", "note": "(racemic)", "values": [{"measurement": "Max temperature decrease", "setting": "[3]", "result": 6.2}, {"measurement": "IC50", "setting": "[2]", "result": "> 1000", "unit": "nM"}, {"measurement": "ED50", "setting": "[7]", "result": 1.7, "unit": "µmol/kg"}, {"measurement": "ED50", "setting": "[8]", "result": "> 125", "unit": "µmol/kg"}]}
{"smiles": "CCCN1CC[C@@H]2Cc3c(O)cccc3C[C@@H]21", "note": "(racemic)", "values": [{"measurement": "Intrinsic activity", "setting": "[14]", "result": 61, "unit": "%"}]}
{"smiles": "C=CCN1CC[C@@H]2Cc3c(O)cccc3C[C@H]21", "note": "(racemic)", "values": [{"measurement": "Intrinsic activity", "setting": "[14]", "result": 91, "unit": "%"}]}
{"smiles": "C=CCN1CC[C@@H]2Cc3c(cccc3OC)C[C@H]21", "note": "(racemic)", "values": [{"measurement": "ED50", "setting": "[15]", "result": "> 10.7 µmol/kg and 6.8 µmol/kg"}, {"measurement": "ED50", "setting": "[16]", "result": "inactive"}]}
{"smiles": "CCCN1CC[C@@H]2Cc3c(O)cccc3C[C@H]21", "note": "(racemic)", "values": [{"measurement": "Intrinsic activity", "setting": "[14]", "result": 79, "unit": "%"}]}
{"smiles": "CC(N)Cc1ccccc1.O=S(=O)(O)O", "note": "(configuration not stated) [AMPHETAMINE SULFATE]", "values": [{"measurement": "Time", "setting": "[17]", "result": 2.4, "unit": "s"}, {"measurement": "Time", "setting": "[18]", "result": 2.9, "unit": "s"}, {"measurement": "Time", "setting": "[19]", "result": 2.6, "unit": "s"}]}
